Results taken from patent US20240124564A1, “ANTI-CLEAVED HISTONE H3 MONOCLONAL ANTIBODY THAT SPECIFICALLY RECOGNIZES NEUTROPHIL EXTRACELLULAR TRAPS” (Max-Planck-Gesellschaft zur Förderung der Wissenschaften …, priority 2021, published 2024).
No end group written: not given here.

Legend:
3D9 binding to NETs = assay: Peptide competition assay; design: species or system human; conditions: 3D9 preincubated overnight with peptide; PMA 3 h neutrophils
Method: NS: non-stimulated. Images were taken on an upright fluorescent microscope at 20×. Scale bars-50 μm (full field) and 10 μm (inset). • (B) Immunoblots of lysates prepared from neutrophils stimulated with PMA (50 nM) for the times indicated in the figure. […] Samples were serially diluted and immobilized on a high affinity ELISA plate according to DNA content (for NETs, chromatin and DNA) or protein content (for recombinant histone H3) as determined by PicoGreen and bicinchoninic acid assays respectively. Starting concentration was 1 μg/ml DNA or protein. […] Data is presented for dilution 200 ng/ml. REIRR indicates unconjugated branched immunising peptide control formed by SEQ ID NO 11 and SEQ ID NO 26. This peptide was coated at 20 ng/ml. […] (F, G) Neutrophils were seeded in 10 ml petri dishes and stimulated for 3 h with PMA. Before total cell lysis and immunoprecipitation, NETs were digested with benzonase to liberate histones and octamers for antibody binding. […] (F) Coomassie stained gel of proteins immunoprecipitated by 3D9 or isotype control and the corresponding silver stained gel. The predicted cleaved H3 and intact H3 bands are indicated. […]
Neutrophils were seeded on coverslips in a 24 well dish (1×10^5 cells/well) and stimulated with PMA for 3 h and fixed with 2% PFA. […] Peptide competition was assessed visually by fluorescent microscopy.

[1] = test system: Histone H3 cleavage by serine proteases; assay: PMA induced histone H3 cleavage in neutrophils (immunoblot) with serine protease inhibition; type: cell-based, human; conditions: preincubation 30 min
Method: (§1) Lysates were resolved by SDS-PAGE and immunoblotted with N- and C-terminal antibodies to H3. GAPDH was used as a loading control. […] At 150 min the cells were fixed and stained for neutrophil elastase (NE), chromatin (using a H2A-H2B-DNA antibody PL2.3) and DNA using DAPI (4′,6-diamidino-2-phenylindole). NS: non-stimulated. Images were taken at 63× and the scale bar is 20 μm.
For all experiments, unless indicated, neutrophils were cultured RPMI (GIBCO 32404014) supplemented with 10 mM HEPES and 0.1% (w/v) HSA, which had been preequilibrated in CO2 conditions for 1 h. Cells were routinely cultured at 37° C., 5% CO2 unless indicated. For all experiments, stimuli were added to cell reactions as 10× working stock solutions freshly diluted in RPMI. For inhibition experiments, a 10× inhibitor stock and appropriate vehicle controls, were added to the cells and preincubated for the times stated in the figure legends.
To analyse proteins, lysates were prepared from stimulated or resting neutrophils. Cells were seeded in culture medium in 1.5 ml microcentrifuge tubes at 1×10^7 cells/ml with 5×10^6 cells per time point. After addition of the inhibitor or agonist, cells were gently mixed and incubated at 37° C. with gentle rotation. […]
For routine protein analysis, samples were analysed by 1D SDS-PAGE and immunoblotted. […] Blotting efficacy was assessed by Ponceau S staining. […]

NET formation = NET formation by immunofluorescent confocal microscopy with serine protease inhibition; type: cell-based, human; conditions: preincubation, PMA 50 nM, 150 min
Method: as §1
For immunofluorescent imaging of purified cells, neutrophils/PBMCs were seeded in 24 well dishes containing glass coverslips, with 1×10^5 cells per well and incubated at 37° C. for 1 h allowing to adhere to the coverslip. At this stage, inhibitors and priming factors were included as indicated. Reactions were stopped by the addition of paraformaldehyde (2% [w/v]) for 20 min at RT or 4° C. overnight. After fixation, cells were washed and stained as previously described (Brinkmann et al 2012). Briefly, all steps were performed by floating inverted coverslips on drops of buffer on laboratory parafilm. Cells were permeabilised with PBS, pH 7.5, 0.5% (v/v) Triton X-100 for 3 min. For screening and quantification experiments, this permeabilization step was extended to 10 min. […]

## branched immunising peptide: branched peptide formed by REIRR (SEQ ID NO 11) and REIRRKC-NH2 (SEQ ID NO 12) (also: branched: C-terminus of chain 1 amide-linked to Lys6 side chain of chain 2, chain 2 conjugated to KLH via Cys thiol, lactam at chain B 6 to a chain's C-terminus; listed as Homo sapiens)
3D9 binding to NETs
  competition of 3D9 staining of NETs: could block 3D9 binding to NETs

## NCCc1ccc(S(=O)(=O)F)cc1 [AEBSF, 4-[2-aminoethyl] benzensulfonylfluoride]
[1]
  effect on H3 cleavage upon PMA stimulation: inhibited H3 cleavage
NET formation
  effect on NET formation: inhibited NET formation and nuclear decondensation
